Data from the NIST ThermoML archive (doi:10.1016/j.jct.2011.08.016).

Test: xn = mol fraction of the nth substance listed
Details: Liquid, Vibrating tube method

CCCCCCCCCC [decane] + CCCCCCC
Details | mass density [kg/m3]
343.11 K, 10000 kPa, x2 = 0.2594 | 691.9
343.11 K, 10000 kPa, x2 = 0.952 | 656.24
343.11 K, 11000 kPa, x2 = 0.2594 | 692.89
343.11 K, 11000 kPa, x2 = 0.952 | 657.38
343.11 K, 12000 kPa, x2 = 0.2594 | 693.86
343.11 K, 12000 kPa, x2 = 0.952 | 658.49
343.11 K, 13000 kPa, x2 = 0.2594 | 694.82
343.11 K, 13000 kPa, x2 = 0.952 | 659.59
343.11 K, 14000 kPa, x2 = 0.2594 | 695.76
343.11 K, 14000 kPa, x2 = 0.952 | 660.67
343.11 K, 15000 kPa, x2 = 0.2594 | 696.69
343.11 K, 15000 kPa, x2 = 0.952 | 661.74
343.11 K, 16000 kPa, x2 = 0.2594 | 697.6
343.11 K, 16000 kPa, x2 = 0.952 | 662.78
343.11 K, 17000 kPa, x2 = 0.2594 | 698.5
343.11 K, 17000 kPa, x2 = 0.952 | 663.81
343.11 K, 18000 kPa, x2 = 0.2594 | 699.38
343.11 K, 18000 kPa, x2 = 0.952 | 664.84
343.11 K, 19000 kPa, x2 = 0.2594 | 700.22
343.11 K, 19000 kPa, x2 = 0.952 | 665.84
343.11 K, 20000 kPa, x2 = 0.2594 | 701.09
343.11 K, 20000 kPa, x2 = 0.952 | 666.82
343.11 K, 21000 kPa, x2 = 0.2594 | 701.92
343.11 K, 21000 kPa, x2 = 0.952 | 667.78
343.11 K, 22000 kPa, x2 = 0.2594 | 702.73
343.11 K, 22000 kPa, x2 = 0.952 | 668.7
343.11 K, 23000 kPa, x2 = 0.2594 | 703.51
343.11 K, 23000 kPa, x2 = 0.952 | 669.62
343.11 K, 24000 kPa, x2 = 0.2594 | 704.28
343.11 K, 24000 kPa, x2 = 0.952 | 670.52
343.11 K, 25000 kPa, x2 = 0.2594 | 705.05
343.11 K, 25000 kPa, x2 = 0.952 | 671.4
353.06 K, 1000 kPa, x2 = 0.0531 | 682.62
353.06 K, 2000 kPa, x2 = 0.0531 | 683.77
353.06 K, 3000 kPa, x2 = 0.0531 | 684.88
353.06 K, 4000 kPa, x2 = 0.0531 | 685.98
353.06 K, 5000 kPa, x2 = 0.0531 | 687.07
353.06 K, 6000 kPa, x2 = 0.0531 | 688.13
353.06 K, 7000 kPa, x2 = 0.0531 | 689.17
353.06 K, 8000 kPa, x2 = 0.0531 | 690.21
353.06 K, 9000 kPa, x2 = 0.0531 | 691.24
353.06 K, 10000 kPa, x2 = 0.0531 | 692.24
353.06 K, 11000 kPa, x2 = 0.0531 | 693.24
353.06 K, 12000 kPa, x2 = 0.0531 | 694.22
353.06 K, 13000 kPa, x2 = 0.0531 | 695.18
353.06 K, 14000 kPa, x2 = 0.0531 | 696.13
353.06 K, 15000 kPa, x2 = 0.0531 | 697.07
353.06 K, 16000 kPa, x2 = 0.0531 | 698
353.06 K, 17000 kPa, x2 = 0.0531 | 698.9
353.06 K, 18000 kPa, x2 = 0.0531 | 699.8
353.06 K, 19000 kPa, x2 = 0.0531 | 700.69
353.06 K, 20000 kPa, x2 = 0.0531 | 701.57
353.06 K, 21000 kPa, x2 = 0.0531 | 702.43
353.06 K, 22000 kPa, x2 = 0.0531 | 703.3
353.06 K, 23000 kPa, x2 = 0.0531 | 704.13
353.06 K, 24000 kPa, x2 = 0.0531 | 704.96
353.06 K, 25000 kPa, x2 = 0.0531 | 705.78
353.08 K, 1000 kPa, x2 = 0.5219 | 662.57
353.08 K, 1000 kPa, x2 = 0.777 | 647.84
353.08 K, 2000 kPa, x2 = 0.5219 | 663.78
353.08 K, 2000 kPa, x2 = 0.777 | 649.19
353.08 K, 3000 kPa, x2 = 0.5219 | 664.95
353.08 K, 3000 kPa, x2 = 0.777 | 650.47
353.08 K, 4000 kPa, x2 = 0.5219 | 666.13
353.08 K, 4000 kPa, x2 = 0.777 | 651.73
353.08 K, 5000 kPa, x2 = 0.5219 | 667.28
353.08 K, 5000 kPa, x2 = 0.777 | 653.01
353.08 K, 6000 kPa, x2 = 0.5219 | 668.44
353.08 K, 6000 kPa, x2 = 0.777 | 654.25
353.08 K, 7000 kPa, x2 = 0.5219 | 669.57
353.08 K, 7000 kPa, x2 = 0.777 | 655.46
353.08 K, 8000 kPa, x2 = 0.5219 | 670.7
353.08 K, 8000 kPa, x2 = 0.777 | 656.67
353.08 K, 9000 kPa, x2 = 0.5219 | 671.82
353.08 K, 9000 kPa, x2 = 0.777 | 657.88
353.08 K, 10000 kPa, x2 = 0.5219 | 672.93
353.08 K, 10000 kPa, x2 = 0.777 | 659.06
353.08 K, 11000 kPa, x2 = 0.5219 | 674.03
353.08 K, 11000 kPa, x2 = 0.777 | 660.22
353.08 K, 12000 kPa, x2 = 0.5219 | 675.1
353.08 K, 12000 kPa, x2 = 0.777 | 661.36
353.08 K, 13000 kPa, x2 = 0.5219 | 676.17
353.08 K, 13000 kPa, x2 = 0.777 | 662.49
353.08 K, 14000 kPa, x2 = 0.5219 | 677.22
353.08 K, 14000 kPa, x2 = 0.777 | 663.61
353.08 K, 15000 kPa, x2 = 0.5219 | 678.26
353.08 K, 15000 kPa, x2 = 0.777 | 664.7
353.08 K, 16000 kPa, x2 = 0.5219 | 679.28
353.08 K, 16000 kPa, x2 = 0.777 | 665.77
353.08 K, 17000 kPa, x2 = 0.5219 | 680.26
353.08 K, 17000 kPa, x2 = 0.777 | 666.82
353.08 K, 18000 kPa, x2 = 0.5219 | 681.28
353.08 K, 18000 kPa, x2 = 0.777 | 667.86
353.08 K, 19000 kPa, x2 = 0.5219 | 682.2
